In ChEMBL document CHEMBL1201862, “PubChem BioAssay data set” (2004):
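Following 48 hours of exposure in 96-well plates, responses at five concentrations were used to interpolate endpoints linearly. GI50: concentration for 50% inhibition of growth.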 Activity calls are given as the source filed them. Rule as the data show it: active = GI50 up to about 1.1 µM and inactive = higher.

Tests used:
Test in all cases: inhibition of tumour cell growth, NCI panel, 48 h
[1] = test system: OVCAR-8
[2] = test system: SW-620
[3] = test system: COLO 205
[4] = test system: PC-3
[5] = test system: SNB-19
[6] = test system: KM12
[7] = test system: A498
[8] = test system: RPMI-8226
[9] = test system: NCI-H522
[10] = test system: OVCAR-5
[11] = test system: UO-31
[12] = test system: SK-MEL-5
[13] = test system: HCC 2998
[14] = test system: HT-29
[15] = test system: Malme-3M
[16] = test system: RXF 393
[17] = test system: SN12C
[18] = test system: DLD-1
[19] = test system: HL-60
[20] = test system: MDA-MB-231

## O=Cc1ccc(-c2cccs2)s1
[1]
  GI50: > 100 µM (inactive)
[2]
  GI50: 72.4 µM (inactive)
[3]
  GI50: 42.3 µM (inactive)
[4]
  GI50: > 100 µM (inactive)
[5]
  GI50: > 100 µM (inactive)
[6]
  GI50: > 100 µM (inactive)
[7]
  GI50: 2.46 µM (inactive)
[8]
  GI50: 57.5 µM (inactive)
[9]
  GI50: > 100 µM (inactive)
[10]
  GI50: 16.7 µM (inactive)
[11]
  GI50: 64 µM (inactive)
[12]
  GI50: 58.1 µM (inactive)
[13]
  GI50: 72.8 µM (inactive)
[14]
  GI50: 63.5 µM (inactive)
[15]
  GI50: > 100 µM (inactive)
[16]
  GI50: 18.4 µM (inactive)
[17]
  GI50: > 100 µM (inactive)
[18]
  GI50: > 63.1 µM (inactive)
[19]
  GI50: 49.3 µM (inactive)
[20]
  GI50: > 80 µM (inactive)

## CC[C@]12C=CCN3CCC4(c5cc([C@@]6(C(=O)OC)CC7CN(CCc8c6[nH]c6ccccc86)CC6CCCCC67)c(OC)cc5N(C)C4[C@](O)(C(=O)OC)C1OC(C)=O)[C@@H]32 (stereo not given in full)
[1]
  GI50: < 0.015 µM (active)
[2]
  GI50: < 0.01 µM (active)
[3]
  GI50: < 0.01 µM (active)
[4]
  GI50: < 0.01 µM (active)
[5]
  GI50: < 0.01 µM (active)
[6]
  GI50: < 0.01 µM (active)
[7]
  GI50: < 0.015 µM (active)
[8]
  GI50: < 0.01 µM (active)
[9]
  GI50: < 0.01 µM (active)
[10]
  GI50: 0.021 µM (active)
[11]
  GI50: 0.157 µM (active)
[12]
  GI50: < 0.01 µM (active)
[13]
  GI50: < 0.01 µM (active)
[14]
  GI50: < 0.01 µM (active)
[15]
  GI50: < 0.01 µM (active)
[16]
  GI50: < 0.01 µM (active)
[17]
  GI50: < 0.01 µM (active)
[18]
  GI50: 0.0269 µM (active)
[19]
  GI50: < 0.01 µM (active)
[20]
  GI50: < 0.01 µM (active)

## CCN(CC)c1ccc(/C=C2/C[N+](C)(C)C/C(=C/c3ccc(N(CC)CC)cc3)C2=O)cc1
[1]
  GI50: 3.32 µM (inactive)
[2]
  GI50: 2.67 µM (inactive)
[3]
  GI50: 1.29 µM (inactive)
[4]
  GI50: 3.05 µM (inactive)
[5]
  GI50: 3.19 µM (inactive)
[6]
  GI50: 1.23 µM (inactive)
[7]
  GI50: 12.4 µM (inactive)
[8]
  GI50: 0.653 µM (active)
[9]
  GI50: 2.06 µM (inactive)
[10]
  GI50: 9.73 µM (inactive)
[11]
  GI50: > 58.9 µM (inactive)
[12]
  GI50: 1.67 µM (inactive)
[13]
  GI50: 2.42 µM (inactive)
[14]
  GI50: 1.58 µM (inactive)
[15]
  GI50: 1.95 µM (inactive)
[16]
  GI50: 2.77 µM (inactive)
[17]
  GI50: 3.17 µM (inactive)
[18]
  GI50: 9.59 µM (inactive)
[19]
  GI50: 0.365 µM (active)
[20]
  GI50: 2.58 µM (inactive)

## CN(C)CCNc1ccc2nnn3c4ccccc4c(=O)c1c23
[1]
  GI50: 2.21 µM (inactive)
[2]
  GI50: 1.59 µM (inactive)
[3]
  GI50: 1.34 µM (inactive)
[4]
  GI50: 2.41 µM (inactive)
[5]
  GI50: 4.56 µM (inactive)
[6]
  GI50: 3.85 µM (inactive)
[7]
  GI50: 2.59 µM (inactive)
[8]
  GI50: 2.92 µM (inactive)
[9]
  GI50: 2.64 µM (inactive)
[10]
  GI50: 3.72 µM (inactive)
[11]
  GI50: 1.32 µM (inactive)
[12]
  GI50: 2.15 µM (inactive)
[13]
  GI50: 7.13 µM (inactive)
[14]
  GI50: 2.01 µM (inactive)
[15]
  GI50: 3.01 µM (inactive)
[16]
  GI50: 5.51 µM (inactive)
[17]
  GI50: 2.96 µM (inactive)
[18]
  GI50: 3.61 µM (inactive)
[19]
  GI50: 3.44 µM (inactive)
[20]
  GI50: 3.69 µM (inactive)
